In the NIST ThermoML archive (doi:10.1016/j.jct.2005.09.004):
± gives the expanded uncertainty stated by the source.

Tests used:
[1] = xn = mol fraction of the nth substance listed; conditions: for surface tension liquid-gas: Drop volume; for mass density: 101 kPa, Liquid
[2] = refractive index (Na D-line) (dimensionless); φn = volume fraction of the nth substance listed; conditions: 101 kPa, Liquid, Standard Abbe refractometry

## C1CCCC1 [cyclopentane] + C1COCCO1
[1]; 283.15 K, x2 = 0.0615
  surface tension liquid-gas: 24.4 ± 0.3 mN/m
[1]; 283.15 K, x2 = 0.121
  surface tension liquid-gas: 24.58 ± 0.3 mN/m
[1]; 283.15 K, x2 = 0.1824
  surface tension liquid-gas: 24.76 ± 0.3 mN/m
[1]; 283.15 K, x2 = 0.2656
  surface tension liquid-gas: 25.04 ± 0.3 mN/m
[1]; 283.15 K, x2 = 0.4058
  surface tension liquid-gas: 25.63 ± 0.3 mN/m
[1]; 283.15 K, x2 = 0.5313
  surface tension liquid-gas: 26.4 ± 0.3 mN/m
[1]; 283.15 K, x2 = 0.6376
  surface tension liquid-gas: 27.35 ± 0.31 mN/m
[1]; 283.15 K, x2 = 0.7264
  surface tension liquid-gas: 28.44 ± 0.32 mN/m
[1]; 283.15 K, x2 = 0.806
  surface tension liquid-gas: 29.74 ± 0.33 mN/m
[1]; 283.15 K, x2 = 0.902
  surface tension liquid-gas: 31.92 ± 0.35 mN/m
[1]; 283.15 K, x2 = 0.9642
  surface tension liquid-gas: 33.79 ± 0.37 mN/m
[1]; 283.15 K, x2 = 0.0516
  mass density: 766.94 ± 0.61 kg/m3
[1]; 283.15 K, x2 = 0.095
  mass density: 777.38 ± 0.6 kg/m3
[1]; 283.15 K, x2 = 0.1944
  mass density: 802.55 ± 0.55 kg/m3
[1]; 283.15 K, x2 = 0.2987
  mass density: 830.28 ± 0.5 kg/m3
[1]; 283.15 K, x2 = 0.3973
  mass density: 857.59 ± 0.45 kg/m3
[1]; 283.15 K, x2 = 0.499
  mass density: 886.71 ± 0.39 kg/m3
[1]; 283.15 K, x2 = 0.6003
  mass density: 916.64 ± 0.34 kg/m3
[1]; 283.15 K, x2 = 0.7063
  mass density: 949.05 ± 0.28 kg/m3
[1]; 283.15 K, x2 = 0.8072
  mass density: 980.93 ± 0.22 kg/m3
[1]; 283.15 K, x2 = 0.9076
  mass density: 1013.82 ± 0.19 kg/m3
[1]; 283.15 K, x2 = 0.9528
  mass density: 1029.04 ± 0.2 kg/m3
[1]; 298.15 K, x2 = 0.0615
  surface tension liquid-gas: 22.37 ± 0.28 mN/m
[1]; 298.15 K, x2 = 0.121
  surface tension liquid-gas: 22.56 ± 0.28 mN/m
[1]; 298.15 K, x2 = 0.1824
  surface tension liquid-gas: 22.74 ± 0.28 mN/m
[1]; 298.15 K, x2 = 0.2656
  surface tension liquid-gas: 23.01 ± 0.28 mN/m
[1]; 298.15 K, x2 = 0.4058
  surface tension liquid-gas: 23.66 ± 0.28 mN/m
[1]; 298.15 K, x2 = 0.5313
  surface tension liquid-gas: 24.56 ± 0.29 mN/m
[1]; 298.15 K, x2 = 0.6376
  surface tension liquid-gas: 25.57 ± 0.29 mN/m
[1]; 298.15 K, x2 = 0.7264
  surface tension liquid-gas: 26.68 ± 0.3 mN/m
[1]; 298.15 K, x2 = 0.806
  surface tension liquid-gas: 27.93 ± 0.31 mN/m
[1]; 298.15 K, x2 = 0.902
  surface tension liquid-gas: 30.03 ± 0.33 mN/m
[1]; 298.15 K, x2 = 0.9642
  surface tension liquid-gas: 31.9 ± 0.35 mN/m
[1]; 298.15 K, x2 = 0.0488
  mass density: 751.07 ± 0.63 kg/m3
[1]; 298.15 K, x2 = 0.0945
  mass density: 762.02 ± 0.61 kg/m3
[1]; 298.15 K, x2 = 0.1818
  mass density: 783.72 ± 0.57 kg/m3
[1]; 298.15 K, x2 = 0.2983
  mass density: 814.38 ± 0.51 kg/m3
[1]; 298.15 K, x2 = 0.3959
  mass density: 841.12 ± 0.47 kg/m3
[1]; 298.15 K, x2 = 0.4962
  mass density: 869.6 ± 0.41 kg/m3
[1]; 298.15 K, x2 = 0.6067
  mass density: 902 ± 0.35 kg/m3
[1]; 298.15 K, x2 = 0.7034
  mass density: 931.45 ± 0.3 kg/m3
[1]; 298.15 K, x2 = 0.811
  mass density: 965.2 ± 0.23 kg/m3
[1]; 298.15 K, x2 = 0.9025
  mass density: 995.13 ± 0.18 kg/m3
[1]; 298.15 K, x2 = 0.9506
  mass density: 1011.12 ± 0.17 kg/m3
[1]; 313.15 K, x2 = 0.0615
  surface tension liquid-gas: 20.14 ± 0.25 mN/m
[1]; 313.15 K, x2 = 0.121
  surface tension liquid-gas: 20.45 ± 0.25 mN/m
[1]; 313.15 K, x2 = 0.1824
  surface tension liquid-gas: 20.77 ± 0.26 mN/m
[1]; 313.15 K, x2 = 0.2656
  surface tension liquid-gas: 21.15 ± 0.26 mN/m
[1]; 313.15 K, x2 = 0.4058
  surface tension liquid-gas: 21.83 ± 0.26 mN/m
[1]; 313.15 K, x2 = 0.5313
  surface tension liquid-gas: 22.62 ± 0.27 mN/m
[1]; 313.15 K, x2 = 0.6376
  surface tension liquid-gas: 23.59 ± 0.27 mN/m
[1]; 313.15 K, x2 = 0.7264
  surface tension liquid-gas: 24.72 ± 0.28 mN/m
[1]; 313.15 K, x2 = 0.806
  surface tension liquid-gas: 26.05 ± 0.3 mN/m
[1]; 313.15 K, x2 = 0.902
  surface tension liquid-gas: 28.24 ± 0.32 mN/m
[1]; 313.15 K, x2 = 0.9642
  surface tension liquid-gas: 30.03 ± 0.33 mN/m
[1]; 313.15 K, x2 = 0.0449
  mass density: 734.98 ± 0.65 kg/m3
[1]; 313.15 K, x2 = 0.094
  mass density: 746.73 ± 0.63 kg/m3
[1]; 313.15 K, x2 = 0.195
  mass density: 771.73 ± 0.58 kg/m3
[1]; 313.15 K, x2 = 0.2962
  mass density: 798.13 ± 0.53 kg/m3
[1]; 313.15 K, x2 = 0.3969
  mass density: 825.52 ± 0.48 kg/m3
[1]; 313.15 K, x2 = 0.4983
  mass density: 854.12 ± 0.43 kg/m3
[1]; 313.15 K, x2 = 0.5994
  mass density: 883.66 ± 0.37 kg/m3
[1]; 313.15 K, x2 = 0.6987
  mass density: 913.64 ± 0.32 kg/m3
[1]; 313.15 K, x2 = 0.8026
  mass density: 946.08 ± 0.26 kg/m3
[1]; 313.15 K, x2 = 0.9066
  mass density: 979.72 ± 0.19 kg/m3
[1]; 313.15 K, x2 = 0.9482
  mass density: 993.49 ± 0.17 kg/m3
[2]; 283.15 K, φ2 = 0.0438
  refractive index: 1.41192 ± 0.00036
[2]; 283.15 K, φ2 = 0.087
  refractive index: 1.41201 ± 0.00036
[2]; 283.15 K, φ2 = 0.1787
  refractive index: 1.41266 ± 0.00035
[2]; 283.15 K, φ2 = 0.2781
  refractive index: 1.41381 ± 0.00034
[2]; 283.15 K, φ2 = 0.3694
  refractive index: 1.41511 ± 0.00034
[2]; 283.15 K, φ2 = 0.4754
  refractive index: 1.41686 ± 0.00033
[2]; 283.15 K, φ2 = 0.5928
  refractive index: 1.41854 ± 0.00032
[2]; 283.15 K, φ2 = 0.7068
  refractive index: 1.4208 ± 0.00032
[2]; 283.15 K, φ2 = 0.7975
  refractive index: 1.42271 ± 0.00032
[2]; 283.15 K, φ2 = 0.9083
  refractive index: 1.42517 ± 0.00031
[2]; 283.15 K, φ2 = 0.9568
  refractive index: 1.42621 ± 0.00031
[2]; 298.15 K, φ2 = 0.0401
  refractive index: 1.40332 ± 0.00036
[2]; 298.15 K, φ2 = 0.0979
  refractive index: 1.40358 ± 0.00036
[2]; 298.15 K, φ2 = 0.1873
  refractive index: 1.4043 ± 0.00035
[2]; 298.15 K, φ2 = 0.2827
  refractive index: 1.40556 ± 0.00034
[2]; 298.15 K, φ2 = 0.3727
  refractive index: 1.40698 ± 0.00034
[2]; 298.15 K, φ2 = 0.4709
  refractive index: 1.40874 ± 0.00033
[2]; 298.15 K, φ2 = 0.5703
  refractive index: 1.41064 ± 0.00032
[2]; 298.15 K, φ2 = 0.6847
  refractive index: 1.41303 ± 0.00032
[2]; 298.15 K, φ2 = 0.785
  refractive index: 1.41517 ± 0.00032
[2]; 298.15 K, φ2 = 0.8986
  refractive index: 1.41772 ± 0.00031
[2]; 298.15 K, φ2 = 0.9436
  refractive index: 1.41867 ± 0.00031
[2]; 313.15 K, φ2 = 0.0434
  refractive index: 1.39455 ± 0.00036
[2]; 313.15 K, φ2 = 0.0858
  refractive index: 1.39477 ± 0.00036
[2]; 313.15 K, φ2 = 0.181
  refractive index: 1.3956 ± 0.00035
[2]; 313.15 K, φ2 = 0.2747
  refractive index: 1.39691 ± 0.00034
[2]; 313.15 K, φ2 = 0.3702
  refractive index: 1.3985 ± 0.00034
[2]; 313.15 K, φ2 = 0.472
  refractive index: 1.40052 ± 0.00033
[2]; 313.15 K, φ2 = 0.5688
  refractive index: 1.40259 ± 0.00032
[2]; 313.15 K, φ2 = 0.6767
  refractive index: 1.40502 ± 0.00032
[2]; 313.15 K, φ2 = 0.7759
  refractive index: 1.40729 ± 0.00032
[2]; 313.15 K, φ2 = 0.8977
  refractive index: 1.41018 ± 0.00031
[2]; 313.15 K, φ2 = 0.933
  refractive index: 1.41105 ± 0.00031
